From US9017952B2, “Reagents for probing ROCKs activation” (National Yang Ming University, priority 2012, dated 2015)
Square brackets hold non-standard residues; d marks the D form. Ends that are not written are not given here. pS = N[C@@H](COP(=O)(O)O)C(=O)O

Experiments:
[1] = system: Ser^1366 phosphorylated myc-ROCKII; experiment: Western blotting with anti-pSer1366 ROCKII antibody, with peptide neutralization and λPPase treatment; format: binding; details: peptide 0.2 μg/ml, antibody 1 μg/ml
Experimental: FIG. 2(A) illustrates the Western blotting pattern showing anti-pSer^1366 ROCKII antibody-II against the phosphorylated ROCKII. myc-ROCKII protein is obtained with extraction after the WT or S1366A mutant myc-ROCKII expression constructs are respectively transfected into HEK-293T cells and immunoprecipitated using anti-myc antibody, and Ser^1366 phosphorylation of myc-ROCKII is probed with antibody-II (1 μg/ml) with or without the competition of phosphorylated peptide-IIa (0.2 μg/ml).
FIG. 3 illustrates the Western blotting pattern showing the signal of immunoprecipitated WT myc-ROCKII with or without λ protein phosphatase (λPPase) at 30° C. for 20 minutes treatment probed with antibody-II
(§1) myc-ROCKII-expressing cells were harvested in an immunoprecipitation (IP) buffer (1% NP-40, 5% glycerol, 50 mM Tris/HCl, pH 7.4, 150 mM NaCl, 1 mM PMSF (phenylmethylsulfonyl fluoride), and protease inhibitor cocktail). The lysates after pre-clearance were incubated with anti-myc antibody at 4° C. for 60 minutes, and then precipitated with protein A-agarose beads for 30 minutes. […] The protein level of myc-ROCKII was detected by Western blotting with anti-myc antibody known by the skilled person in the art. […]

[2] = system: ROCKII Ser^1366 phosphorylation; experiment: immunohistochemical staining of human breast tumor tissue with anti-pSer1366 ROCKII antibody and peptide competition; details: antibody 5 μg/ml, peptide 0.5 μg/ml
Description: FIG. 7 illustrates the immunohistochemistry images showing RCOKII Ser^1366 phosphorylation in human breast tumor tissues. The tumor part and non-tumor part breast tissues of from two breast cancer patients are sectioned, and probed with anti-pSer^1366 ROCKII antibody in the presence of phosphorylated peptide-lib and unphosphorylated peptide-IIa. The normal rabbit IgG is the control for negative reaction, and #1 is negative for lymph node and #2 is positive for lymph node.
The tumor part and the non-tumor part of the breast tissue blocks were embedded in Tissue-Tek OCT™ compound, snap-frozen, and sectioned into 5 μm cryosections. The sections were fixed with 4% (w/v) paraformaldehyde for 15 minutes and placed in boiling citrate buffer for 10 minutes. Endogenous peroxidase activity was quenched by 3% […] for 10 minutes and this was followed by incubation with 5.5% (v/v) normal goat serum in Tris-buffer saline containing 0.1% of Triton X-100 (TBST) for blocking. Sections were subsequently incubated with primary antibody against pSer^1366 ROCKII (1:200 dilution; 5 μg/ml) in the present or absence of the phosphopeptide or non-phosphopeptide (0.5 μg/ml). […]
Next, whether ROCKII Ser^1366 phosphorylation can be detected is determined by anti-pSer^1366 ROCKII antibody-II. […]

[3] = system: ROCKII Ser^1366 phosphorylation; experiment: Western blotting of serum-starved mouse embryonic fibroblasts stimulated with nocodazole with or without Y27632; format: cell-based
Experimental: FIGS. 6(A) and 6(B) respectively illustrate the Western blotting patterns showing (A) antibody-I and (B) antibody-II against the protein extract from normal mouse embryonic fibroblasts (MEFs) stimulated with nocodazole(10 μM) in present or absent of Y27632 (10 μM).
In addition to the above human cell experiments, the level of Ser^1366 phosphorylation of ROCKII in animal cells is also researched in the present invention.

[4] = target: ROCKII Ser^1366 phosphorylation (Bos taurus, UniProt Q28021); experiment: Western blotting of Ser1366 phosphorylated myc-ROCKII from treated HEK293T cells; format: cell-based, human; details: Y27632 20 μM for 2 hours, probed with antibody-II
Experimental: myc-ROCKII-expressing cells were harvested in an immunoprecipitation (IP) buffer (1% NP-40, 5% glycerol, 50 mM Tris/HCl, pH 7.4, 150 mM NaCl, 1 mM PMSF (phenylmethylsulfonyl fluoride), and protease inhibitor cocktail). The lysates after pre-clearance were incubated with anti-myc antibody at 4° C. for 60 minutes, and then precipitated with protein A-agarose beads for 30 minutes. The immunoprecipitates were preincubated with or without 100 μM of Y27632 (ROCK inhibitor), which was followed by incubation with a IX kinase buffer (50 mM Tris/HCl, pH 7.4, 10 mM MgCl2, 1 mM EGTA (ethylene glycol tetraacetic acid), 0.5 mM DTT (dithiothreitol), 5 mM NaF, and 0.1 mM Na3VO4, 20 μM ATP) containing 5 μCi of [γ-^32p]ATP at 30° C. for 20 minutes. The immunoprecipitates (controls) from non-transfected cells were used backgrounds. The protein level of myc-ROCKII was detected by Western blotting with anti-myc antibody known by the skilled person in the art.

myc-ROCKII = myc-ROCKII (Bos taurus, UniProt Q28021); experiment: in vitro kinase reaction of immunoprecipitated myc-ROCKII with [γ-32P]ATP (autophosphorylation); format: biochemical; details: immunoprecipitates preincubated with 100 μM Y27632; 30° C., 20 minutes
Experimental: myc-ROCKII-expressing cells were harvested in an immunoprecipitation (IP) buffer (1% NP-40, 5% glycerol, 50 mM Tris/HCl, pH 7.4, 150 mM NaCl, 1 mM PMSF (phenylmethylsulfonyl fluoride), and protease inhibitor cocktail). The lysates after pre-clearance were incubated with anti-myc antibody at 4° C. for 60 minutes, and then precipitated with protein A-agarose beads for 30 minutes. The immunoprecipitates were preincubated with or without 100 μM of Y27632 (ROCK inhibitor), which was followed by incubation with a IX kinase buffer (50 mM Tris/HCl, pH 7.4, 10 mM MgCl2, 1 mM EGTA (ethylene glycol tetraacetic acid), 0.5 mM DTT (dithiothreitol), 5 mM NaF, and 0.1 mM Na3VO4, 20 μM ATP) containing 5 μCi of [γ-^32p]ATP at 30° C. for 20 minutes. The immunoprecipitates (controls) from non-transfected cells were used backgrounds.
The myc-ROCKII protein overexpressed in HEK-293T cells was immunoprecipitated and subjected to an in vitro kinase reaction containing [γ-^32P]ATP in the presence or absence of the ROCK inhibitor Y27632.

[5] = system: Ser^1333 phosphorylated flag-ROCKI; experiment: Western blotting with anti-pSer1333 ROCKI antibody, with peptide neutralization; format: binding; details: peptide 0.2 μg/ml, antibody 1 μg/ml
Experimental: FIG. 2(B) illustrates the Western blotting pattern showing anti-pSer^1333 ROCKI antibody-I against the phosphorylated ROCKI. flag-ROCKI protein is obtained with extraction after the WT or S1333A mutant flag-ROCKI expression constructs are respectively transfected to […] cells and immunoprecipitated using anti-flag antibody, and Ser^1333 phosphorylation of flag-ROCKI is probed with antibody-I (1 μg/ml) with or without the competition of phosphorylated peptide-Ia (0.2 μg/ml).
as §1, with “minutes. The immunoprecipitates were preincubated with or without 100 μM of Y27632 (ROCK inhibitor), which was followed by incubation with a IX kinase buffer (50 mM Tris/HCl, pH 7.4, 10 mM MgCl2, 1 mM EGTA (ethylene glycol tetraacetic acid), 0.5 mM DTT (dithiothreitol), 5 mM NaF, and 0.1 mM Na3VO4, 20 μM ATP) containing 5 μCi of [γ-^32p]ATP at 30° C. for 20 minutes.” for “minutes.”

[6] = MEFs serum-starved 24 hours, nocodazole 10 μM

Chain of ROCKII Ser^1366 phosphorylation (Bos taurus, UniProt Q28021) (Q28021 6-1388): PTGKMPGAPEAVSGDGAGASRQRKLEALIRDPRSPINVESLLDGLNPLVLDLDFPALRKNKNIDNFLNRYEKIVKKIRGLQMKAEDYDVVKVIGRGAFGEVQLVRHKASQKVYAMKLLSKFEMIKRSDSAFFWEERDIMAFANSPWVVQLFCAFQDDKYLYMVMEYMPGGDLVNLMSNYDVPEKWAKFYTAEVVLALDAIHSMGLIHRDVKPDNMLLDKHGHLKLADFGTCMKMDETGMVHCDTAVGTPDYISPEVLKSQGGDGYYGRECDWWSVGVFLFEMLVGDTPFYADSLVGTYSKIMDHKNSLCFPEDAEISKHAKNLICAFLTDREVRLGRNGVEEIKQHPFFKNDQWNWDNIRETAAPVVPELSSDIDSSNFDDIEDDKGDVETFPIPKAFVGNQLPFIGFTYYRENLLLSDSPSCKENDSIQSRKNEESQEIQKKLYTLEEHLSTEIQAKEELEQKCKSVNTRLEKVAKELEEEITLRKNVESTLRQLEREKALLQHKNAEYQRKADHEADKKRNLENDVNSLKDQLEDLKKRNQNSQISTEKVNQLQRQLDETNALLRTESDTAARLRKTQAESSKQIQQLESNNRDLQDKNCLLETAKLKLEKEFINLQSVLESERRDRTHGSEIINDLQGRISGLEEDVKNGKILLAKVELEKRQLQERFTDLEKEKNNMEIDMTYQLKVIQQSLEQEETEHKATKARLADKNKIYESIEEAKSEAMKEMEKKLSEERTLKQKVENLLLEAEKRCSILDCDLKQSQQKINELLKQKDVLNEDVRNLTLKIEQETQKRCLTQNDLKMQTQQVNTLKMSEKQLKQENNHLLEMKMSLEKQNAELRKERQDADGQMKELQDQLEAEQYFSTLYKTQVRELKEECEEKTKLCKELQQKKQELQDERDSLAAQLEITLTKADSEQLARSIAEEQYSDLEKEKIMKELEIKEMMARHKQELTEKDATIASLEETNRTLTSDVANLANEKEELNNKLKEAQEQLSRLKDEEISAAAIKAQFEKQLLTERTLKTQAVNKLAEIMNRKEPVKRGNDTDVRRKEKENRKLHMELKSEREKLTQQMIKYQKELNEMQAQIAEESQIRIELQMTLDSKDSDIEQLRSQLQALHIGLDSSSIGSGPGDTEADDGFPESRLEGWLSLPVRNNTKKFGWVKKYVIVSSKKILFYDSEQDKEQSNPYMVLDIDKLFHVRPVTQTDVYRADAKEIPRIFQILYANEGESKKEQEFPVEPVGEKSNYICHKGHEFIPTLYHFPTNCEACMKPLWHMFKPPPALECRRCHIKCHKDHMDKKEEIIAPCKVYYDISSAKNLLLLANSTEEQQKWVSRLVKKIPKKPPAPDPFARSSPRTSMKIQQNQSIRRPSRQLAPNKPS
Chain of myc-ROCKII (Q28021 6-1388): as above

Compound: N′-DPFARSSPRTpSMK-C′ (SEQ ID NO:6) (DPFARSSPRT[pS]MK) [peptide-lib]
- neutralization of the autophosphorylated signal of anti-pSer^1366 ROCKII antibody [1]: neutralized
- ROCKII Ser^1366 phosphorylation signal in IHC under peptide competition [2]: blocked

Compound: C[C@@H](N)[C@H]1CC[C@H](C(=O)Nc2ccncc2)CC1 [Y27632]
- enhanced phosphorylation signal (ROCKII Ser^1366, phospho-MLC) induced by nocodazole ([3]; MEFs, nocodazole 10 μM plus Y27632 10 μM): disappeared
- signal level of Ser^1366 phosphorylated myc-ROCKII [4]: markedly decreased
- phosphorylation signal of radioactively labeled ROCKII (myc-ROCKII): abolished the phosphorylation signal

Compound: COC(=O)Nc1nc2ccc(C(=O)c3cccs3)cc2[nH]1 [nocodazole]
- downstream phosphor-MLC signal regulated by ROCKII [3, 6]: markedly increased
- signal of ROCKII Ser^1366 phosphorylation [3, 6]: enhanced

Compound: N′-RASPRTLpSTRS-C′ (SEQ ID NO:4) (RASPRTL[pS]TRS) [peptide-Ib]
- neutralization of the autophosphorylated signal of anti-pSer^1333 ROCKI antibody [5]: neutralized
